{"source": "patent US20210101928A1", "about": "(Sage Therapeutics, Inc., priority 2017, published 2021)", "data": [{"biological_target": "GABAA receptor ([35S]-TBPS binding, rat brain cortical membranes)", "test": "Steroid inhibition of [35S]-TBPS binding", "details": "Table I-1, 3 nM [35S]-TBPS, in the presence of 5 mM GABA, read-out: TBPS binding IC50", "procedure": "(§1) [^35S]-t-Butylbicyclophosphorothionate (TBPS) binding assays using rat brain cortical membranes in the presence of 5 mM GABA has been described (Gee et al, J. Pharmacol. Exp. Ther. 1987, 241, 346-353; Hawkinson et al, Mol. Pharmacol. 1994, 46, 977-985; Lewin, A. H et al., Mol. Pharmacol. 1989, 35, 189-194).\n(§2) Briefly, cortices are rapidly removed following decapitation of carbon dioxide-anesthetized Sprague-Dawley rats (200-250 g). The cortices are homogenized in 10 volumes of ice-cold 0.32 M sucrose using a glass/teflon homogenizer and centrifuged at 1500×g for 10 min at 4° C. The resultant supernatants are centrifuged at 10,000×g for 20 min at 4° C. to obtain the P2 pellets. The P2 pellets are resuspended in 200 mM NaCl/50 mM Na—K phosphate pH 7.4 buffer and centrifuged at 10,000×g for 10 min at 4° C. This washing procedure is repeated twice and the pellets are resuspended in 10 volumes of buffer. Aliquots ([…]) of the membrane suspensions are incubated with 3 nM [^35S]-TBPS and […] aliquots of test drug dissolved in dimethyl sulfoxide (DMSO) (final 0.5%) in the presence of 5 mM GABA. The incubation is brought to a final volume of 1.0 mL with buffer. Nonspecific binding is determined in the presence of […] and ranged from 15 to 25%. Following a 90 min incubation at room temp, the assays are terminated by filtration through glass fiber filters (Schleicher and Schuell No. 32) using a cell harvester (Brandel) and rinsed three times with ice-cold buffer. Filter bound radioactivity is measured by liquid scintillation spectrometry. Non-linear curve fitting of the overall data for each drug averaged for each concentration is done using Prism (GraphPad). […] The concentration of test compound producing 50% inhibition (IC50) of specific binding and the maximal extent of inhibition (Imax) are determined for the individual experiments with the same model used for the overall data and then the means±SEM.s of the individual experiments are calculated.\n(§3) Various compounds are or can be screened to determine their potential as modulators of [^35S]-TBPS binding in vitro. These assays are or can be performed in accordance with the above.", "units": {"IC50": "nM"}, "values": [{"smiles": "C[C@@]1(O)CC[C@]2(C)[C@H]3CC[C@]4(C)[C@@H](C(=O)Cn5cc6ccncc6n5)CC[C@H]4[C@@H]3CC[C@]2(C)C1", "note": "[I-A6, 1-((3R,5R,8S,9S,10R,13S,14S,17S)-3-hydroxy-3,5,10,13-tetramethylhexadecahydro-1H-cyclopenta[a]phenanthren-17-yl)-2-(2H-pyrazolo[3,4-c]pyridin-2-yl)ethan-1-one]", "IC50": "100 to 1000"}]}, {"biological_target": "GABAA receptor ([35S]-TBPS binding, rat brain cortical membranes)", "test": "Steroid inhibition of [35S]-TBPS binding", "details": "Table II-2, 3 nM [35S]-TBPS, in the presence of 5 mM GABA, read-out: TBPS IC50", "procedure": "as §1, §2, §3", "units": {"IC50": "nM"}, "values": [{"smiles": "CCOC[C@@]1(O)CC[C@@]2(CC)[C@@H](CC[C@H]3[C@@H]4CC[C@H](C(=O)Cn5nnnc5C)[C@@]4(C)CC[C@@H]32)C1", "note": "[II-78, 1-((3R,5S,8S,9S,10S,13S,14S,17S)-3-(ethoxymethyl)-10-ethyl-3-hydroxy-13-methylhexadecahydro-1H-cyclopenta[a]phenanthren-17-yl)-2-(5-methyl-1H-tetrazol-1-yl)ethan-1-one]", "IC50": "100 to 1000"}, {"smiles": "CCOC[C@@]1(O)CC[C@@]2(CC)[C@H](CC[C@H]3[C@@H]4CC[C@H](C(=O)Cn5cc(C#N)cn5)[C@@]4(C)CC[C@@H]32)C1", "note": "[II-C8, 1-(2-((3R,5R,8S,9S,10S,13S,14S,17S)-3-(ethoxymethyl)-10-ethyl-3-hydroxy-13-methylhexadecahydro-1H-cyclopenta[a]phenanthren-17-yl)-2-oxoethyl)-1H-pyrazole-4-carbonitrile]", "IC50": "< 10"}, {"smiles": "CCOC[C@@]1(O)CC[C@@]2(CC)[C@H](CC[C@H]3[C@@H]4CC[C@H](C(=O)Nc5ccccc5)[C@@]4(C)CC[C@@H]32)C1", "note": "[II-46, (3R,5R,85,95,10S,13S,14S,17S)-3-(ethoxymethyl)-10-ethyl-3-hydroxy-13-methyl-N-phenylhexadecahydro-1H-cyclopenta[a]phenanthrene-17-carboxamide]", "IC50": "10 to 100"}, {"smiles": "CC[C@]12CC[C@](O)(COC)C[C@H]1CC[C@H]1[C@@H]3CC[C@H](C(=O)N4CCCC[C@@H]4C)[C@@]3(C)CC[C@@H]12", "note": "[II-B11, ((3R,5R,8S,9S,10S,13S,14S,17S)-10-ethyl-3-hydroxy-3-(methoxymethyl)-13-methylhexadecahydro-1H-cyclopenta[a]phenanthren-17-yl)((S)-2-methylpiperidin-1-yl)methanone]", "IC50": "10 to 100"}, {"smiles": "CC[C@]12CC[C@@](C)(O)C[C@@H]1CC[C@H]1[C@@H]3CC[C@H](C(=O)CN4CCN(S(C)(=O)=O)CC4)[C@@]3(C)CC[C@@H]12", "note": "[II-A10, 1-((3R,5S,8S,9S,10S,13S,14S,17S)-10-ethyl-3-hydroxy-3,13-dimethylhexadecahydro-1H-cyclopenta [a]phenanthren-17-yl)-2-(4-(methylsulfonyl)piperazin-1-yl)ethan-1-one]", "IC50": "10 to 100"}]}, {"biological_target": "GABAA receptor ([35S]-TBPS binding, rat brain cortical membranes)", "test": "Steroid inhibition of [35S]-TBPS binding", "details": "Table III-1 (biological data), 3 nM [35S]-TBPS, in the presence of 5 mM GABA, read-out: TBPS IC50", "procedure": "as §1, §2, §3", "units": {"IC50": "nM"}, "values": [{"smiles": "CC[C@]12CC[C@H]3[C@@H](CC[C@H]4C[C@@](O)(COC)CC[C@@H]43)[C@@H]1CC[C@@H]2C(=O)Cn1nnnc1C", "note": "[III-A23, 1-((3R,5S,8R,9R,10S,13S,14S,17S)-13-ethyl-3-hydroxy-3-(methoxymethyl)hexadecahydro-1H-cyclopenta[a]phenanthren-17-yl)-2-(5-methyl-1H-tetrazol-1-yl)ethan-1-one]", "IC50": "100 to 1000"}, {"smiles": "CC[C@]12CC[C@H]3[C@@H](CC[C@@H]4C[C@](C)(O)CC[C@@]43C)[C@@H]1CC[C@@H]2C(C)=O", "note": "[III-A30, 1-((3R,5R,8R,9S,10S,13S,14S,17S)-13-ethyl-3-hydroxy-3,10-dimethylhexadecahydro-1H-cyclopenta [a]phenanthren-17-yl)ethan-1-one]", "IC50": "< 10"}, {"smiles": "CC[C@]12CC[C@H]3[C@@H](CC[C@@H]4C[C@@](O)(COC)CC[C@@H]43)[C@@H]1CC[C@@H]2C(=O)Cn1cc(C#N)cn1", "note": "[III-B17, 1-(2-((3R,5R,8R,9R,10S,13S,14S,17S)-13-ethyl-3-hydroxy-3-(methoxymethyl)hexadecahydro-1H-cyclopenta[a]phenanthren-17-yl)-2-oxoethyl)-1H-pyrazole-4-carbonitrile]", "IC50": "10 to 100"}, {"smiles": "CC[C@]12CC[C@H]3[C@@H](CC[C@@H]4C[C@](C)(O)CC[C@@]43C)[C@@H]1CC[C@@H]2C(=O)Cn1nnc(C)n1", "note": "[III-A33]", "IC50": "< 10"}]}]}
